# Patent US9387184B2, “Pharmaceutical compositions for combination therapy” (Saniona A/S, priority 2012, dated 2016)
# Tests used:
# [1] = Real-time feeding monitoring (food intake) in telemetrized rats; type: in vivo, rat; settings: for effect on food intake per se: antihypertensive drug alone, p.o.; for effect on tesofensine-induced reduction in food intake: co-administered with tesofensine 3.0 mg/kg p.o., Metoprolol 10, 20 mg/kg, Telmisartan 1.0, 3.0 mg/kg p.o.
# Procedure: (§1) Five months-old male normotensive Sprague-Dawley rats (508±18 g, Harlan, Horst, The Netherlands) were housed in solid bottomed Plexiglas cages with dust free wood chippings and a cardboard tube. Holding rooms were maintained under a 12-h light/dark cycle (lights off: 1500 h). Ambient temperature was 18.0 to 22.0° C. and relative air humidity of 40 to 60%. A dim red light was the sole source of illumination during the dark period. The rats had ad libitum standard chow (Altromin 1324, 10% kcal from fat, energy density 2.85 kcal per g, Altromin GmbH, Lage, Germany) and water. All experiments were approved (permission no. 2007/561-1343) and conducted in accordance with the guidelines of the Animal Experimentation Inspectorate, Ministry of Justice, Denmark.
# (§2) Upon 2-3 weeks of post-surgery recovery, the rats were transferred to fully automated food intake monitoring cages (HM-2, MBRose, Faaborg, Denmark) modified to simultaneously determine individualized food intake (by microchip, see below) and cardiovascular condition (by telemetry). For combined telemetry analysis, two receivers (RPC-1, Data Sciences International, St. Paul, Minn.) were placed in the bottom of each HM-2 food intake monitoring cages thereby fully covering the cage surface area. The modified HM-2 food intake monitoring cages were placed in a modified ventilated cabinet with lightproof doors and a light kit for cabinet-based control of light-dark cycle (Scanbur BK, Karslunde, Denmark) being similar to that in the holding rooms. Cabinet temperature was 24.0 to 26.0° C. and relative air humidity of 40 to 60%. The animals were habituated to the HM-2 food intake monitoring system for at least 5 days prior to initiation of drug treatment procedures. Prior to re-housing to the fully automated food intake monitoring cages, the rats were subcutaneuosly injected with a microchip (#402575, eVet, Haderslev, Denmark) to simultaneously identify, and in real-time mode to track feeding behavior of each individual animal throughout the entire experiment. Locomotor activity was detected by an integrated infrared sensor placed above the cage. Standard HM-2 control unit settings are reported previously in further details^7. All drugs and saline vehicle were administered 30 min before dark onset. All rats received the same treatment in each individual experiment, i.e. a parallel study design was used, and a wash-out period of at least 5 days was used between treatments to assure re-establishment of baseline levels of food intake, locomotor activity, heart rate and blood pressure. The home cage was removed from the HM-2 food intake monitoring system during the drug administration procedure and returned immediately after completion of the drug administration, whereupon automated monitoring of feeding behavior and cardiovascular parameters of each individual animal was resumed. Body weight was measured daily. Body weight and microstructural food intake analysis was performed using a data reporting software (HMView, MBRose, Faaborg, Denmark).
# (§3) Data were fed into a standard graphic and statistical analysis program (GraphPad Prism v.4.03). Body weight data were calculated as absolute values (g) or daily body weight gain relative (control level=100%) to the first day of drug administration (day 0). Body weight gain and food intake were expressed as means±S.E.M of n individual animals. After acquisition of telemetry data, 12-hour means were calculated using Microsoft Excel 2007. Finally, statistical analysis and data presentation (mean±S.E.M.) was performed using GraphPad Prism v.4.03). All data were evaluated using a repeated-measure one-way ANOVA with Tukey's post-hoc test was applied to perform statistical comparisons between treatment groups. A p-value less than 0.05 was considered statistically significant.
# (§4) All drugs were administered p.o. (1.0 ml/kg). […]
# [2] = Body weight in telemetrized rats; type: in vivo, rat; settings: for effect on body weight regulation per se: antihypertensive drug alone, p.o.; for effect on tesofensine-induced reduction in body weight: co-administered with tesofensine 3.0 mg/kg p.o., Metoprolol 10, 20 mg/kg, Telmisartan 1.0, 3.0 mg/kg p.o.
# Procedure: as §1, §2, §3, §4
# [3] = Locomotor activity in telemetrized rats (infrared sensor); type: in vivo, rat
# Procedure: as §1
# Upon 2-3 weeks of post-surgery recovery, the rats were transferred to fully automated food intake monitoring cages (HM-2, MBRose, Faaborg, Denmark) modified to simultaneously determine individualized food intake (by microchip, see below) and cardiovascular condition (by telemetry). For combined telemetry analysis, two receivers (RPC-1, Data Sciences International, St. Paul, Minn.) were placed in the bottom of each HM-2 food intake monitoring cages thereby fully covering the cage surface area. […] Locomotor activity was detected by an integrated infrared sensor placed above the cage. […] Body weight was measured daily. […]
# as §3, with “Finally, statistical analysis and data presentation (mean±S.E.M.) was performed using GraphPad Prism v.4.03).” left out, “A p-value less than 0.05 was considered statistically significant.” left out
# [4] = Telemetric monitoring of heart rate and blood pressure in rats; type: in vivo, rat
# Procedure: as §1
# The rats were implanted at Harlan laboratories, Horst, the Netherlands, with Data Science International (DSI, St. Paul, USA) Physiotel PA-C40 transmitters according to the manufactures description. In brief, the rats were anaesthetized with isoflurane, ventilated, and a laparotomy was performed under aseptic conditions. A pressure catheter was inserted and sealed in place with Vetbond (3M, St. Paul, USA) into the isolated abdominal aorta. Finally, the transmitter was placed on top of the intestines, in parallel to the long axis of the body, and secured to the abdominal wall, where after the abdominal muscle layer and skin was closed with solvable sutures. The animals were allowed full post-surgical recovery before shipment. Blood pressure (systolic and diastolic arterial blood pressure) and heart rate (pulse rate) data were collected at a sampling rate of 500 Hz using Dataquest A.R.T (v.4.3) and Ponemah software (v.5.0) (DSI, St. Paul, USA) using factory-provided calibration values for the individual transmitters and an Ambient Pressure Reference Monitor (DSI, St. Paul, USA) to ensure accurate blood pressure measurements. Data were collected continuously for 48 h and binned in 5 s intervals.
# as §2, with “The home cage was removed from the HM-2 food intake monitoring system during the drug administration procedure and returned immediately after completion of the drug administration, whereupon automated monitoring of feeding behavior and cardiovascular parameters of each individual animal was resumed. Body weight was measured daily. Body weight and microstructural food intake analysis was performed using a data reporting software (HMView, MBRose, Faaborg, Denmark).” left out
# [5] = long-term treatment, corrected for placebo and diet effects; cited from earlier work
# [6] = 3.0-5.0 mg/kg p.o., acute, evident for at least 48 hours, compared to vehicle-treated rats
# [7] = tesofensine 1.0-5.0 mg/kg p.o., acute
smiles,measurement,setting,value
"COCCc1ccc(OCC(O)CNC(C)C)cc1 (centres unmarked) [Metoprolol, 1-(Isopropylamino)-3-[4-(2-methoxyethyl)-phenoxy]-propan-2-ol]",effect on food intake per se,[1],neither antihypertensive drug exhibited an effect
same,effect on tesofensine-induced reduction in food intake,[1],did also not affect tesofensine-induced reductions in food intake
same,effect on body weight regulation per se,[2],neither antihypertensive drug exhibited an effect
same,effect on tesofensine-induced reduction in body weight,[2],did also not affect
same,effect on tesofensine-induced locomotor activity,"[3]; co-administered with tesofensine 3.0 mg/kg p.o., compared to tesofensine alone",completely prevented the locomotor activity inducing effect by tesofensine
same,effect on tesofensine-induced tachycardia,[4]; Metoprolol 10 mg/kg and 20 mg/kg co-treatment with tesofensine 3.0 mg/kg p.o.,fully reversed tesofensine-induced tachycardia
same,effect on tesofensine-evoked increase in diastolic pressure,"[4]; Metoprolol 20 mg/kg co-treatment with tesofensine 3.0 mg/kg p.o., first light phase, 12-24 hours post-treatment",reversed by co-treatment with Metoprolol
same,effect on tesofensine-induced rise in systolic blood pressure,"[4]; Metoprolol 20 mg/kg co-treatment with tesofensine 3.0 mg/kg p.o., for up to 24 hours",normalization of the systolic blood pressure
same,"diastolic blood pressure, drug alone","[4]; Metoprolol 20 mg/kg p.o. alone, first 24 hours",did not produce any significant effects on diastolic blood pressure
same,duration of heart rate lowering effect,"[4]; Metoprolol 10 and 20 mg/kg p.o., after administration",up to 24 hours
CCCc1nc2c(C)cc(-c3nc4ccccc4n3C)cc2n1Cc1ccc(-c2ccccc2C(=O)O)cc1 [Telmisartan],effect on food intake per se,[1],neither antihypertensive drug exhibited an effect
same,effect on tesofensine-induced reduction in food intake,[1],did also not affect tesofensine-induced reductions in food intake
same,effect on body weight regulation per se,[2],neither antihypertensive drug exhibited an effect
same,effect on tesofensine-induced reduction in body weight,[2],did also not affect
same,effect on tesofensine-induced rise in heart rate,[4]; Telmisartan 1.0 and 3.0 co-treatment with tesofensine 3.0 mg/kg p.o.,did not revert the rise in heart rate
same,"heart rate and blood pressure, drug alone",[4]; Telmisartan alone 3.0 mg/kg p.o.,no effect on heart rate and blood pressure
same,effect on Tesofensine-induced increases in diastolic and systolic blood pressure,"[4]; Telmisartan co-treatment with tesofensine 3.0 mg/kg p.o., p>0.05 compared to Tesofensine alone",did not lead to a significant prevention of Tesofensine-induced hypertension
same,heart rate compared to tesofensine alone,[4]; highest dose of Telmisartan (3.0 mg/kg) combined with tesofensine 3.0 mg/kg p.o.,significant increase in heart rate as compared to tesofensine administration alone
CCOC[C@@H]1[C@@H](c2ccc(Cl)c(Cl)c2)C[C@@H]2CC[C@H]1N2C [Tesofensine],duration of hypophagic effect,"[1]; 5.0 mg/kg p.o., acute",≤ 48 h
same,duration of hypophagic effect,"[1]; 3.0-5.0 mg/kg p.o., acute",≤ 24 h
same,duration of hypophagic effect,"[1]; all doses (1.0-5.0 mg/kg p.o.), acute",up to 12 hours
same,food intake relative to the control level,"[1]; tesofensine 5.0 mg/kg p.o., acute, 12 hours post-dosing, p<0.001",approximately 50%
same,net body weight loss (absolute),[2]; [6],8 to 11 g
same,net body weight loss (relative),[2]; [6],1.0-1.5%
same,locomotor activity,"[3]; 3.0-5.0 mg/kg p.o., acute","significant, albeit short-lasting, increase in locomotor activity"
same,duration of induced locomotor activity,[3]; first dark phase after acute dosing,up to 12 hours
same,systolic blood pressure,"[4]; tesofensine 3.0 mg/kg and 5.0 mg/kg p.o., up to 48 hours after administration",dose-dependent modest increase in systolic blood pressure
same,heart rate,"[4]; tesofensine 3.0 mg/kg p.o., Telmisartan combination study",significantly increase heart rate
same,duration of heart rate increase,[4]; [7],up to 48 hours
same,heart rate,[4]; [7],dose-dependent increase in heart rate at all doses tested
same,diastolic blood pressure,"[4]; tesofensine 1.0-5.0 mg/kg p.o., highest dose not significant (p=0.204)",trend towards a dose-dependent rise in diastolic blood pressure
same,weight loss in obese patients,[5],about 10%
